Ten molecules from ChEMBL document CHEMBL4402507, “Tyrosinase inhibitory study of flavonolignans from the seeds of Silybum marianum (Milk thistle)” (Bioorg Med Chem, 2019) can be followed below.

Active and inactive are the calls of the source. The calls are words filed in the database; no cut-off is given here.

Assay [1] has as its target T1, Tyrosinase (Agaricus bisporus) (UniProt O42713).
T1 sequence (whole entry): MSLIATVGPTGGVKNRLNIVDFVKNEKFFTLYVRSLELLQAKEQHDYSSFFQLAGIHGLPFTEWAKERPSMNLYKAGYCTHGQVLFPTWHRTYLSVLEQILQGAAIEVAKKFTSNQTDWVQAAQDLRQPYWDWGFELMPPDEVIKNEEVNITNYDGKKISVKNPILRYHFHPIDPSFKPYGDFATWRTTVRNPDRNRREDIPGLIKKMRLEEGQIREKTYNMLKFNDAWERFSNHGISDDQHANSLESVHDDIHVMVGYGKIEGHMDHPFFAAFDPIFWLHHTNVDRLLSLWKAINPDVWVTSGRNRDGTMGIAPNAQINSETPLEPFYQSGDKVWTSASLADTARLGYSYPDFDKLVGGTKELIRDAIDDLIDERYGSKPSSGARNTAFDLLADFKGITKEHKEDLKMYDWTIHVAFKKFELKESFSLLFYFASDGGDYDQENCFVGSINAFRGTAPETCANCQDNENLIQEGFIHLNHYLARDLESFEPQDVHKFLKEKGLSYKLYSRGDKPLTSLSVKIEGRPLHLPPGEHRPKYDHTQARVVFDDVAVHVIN
Description: Inhibition of monophenolase activity of mushroom tyrosinase assessed as inhibition constant for enzyme-substrate-inhibitor complex by measuring reduction in dopachrome formation using L-Tyrosine substrate by UV-Vis spectrophotometry

For assay [2], the target named is T2, Tyrosinase (Agaricus bisporus, UniProt O42713).
T2 sequence (O42713 whole entry): T1 sequence (whole entry)
Description: Mixed type inhibition of diphenolase activity of mushroom tyrosinase assessed as reduction in dopachrome formation using L-DOPA substrate by UV-Vis spectrophotometry based Dixon plot analysis

Assay [3] has as its target T2, Tyrosinase. Kind of assay: Inhibition of diphenolase activity of mushroom tyrosinase assessed as reduction in dopachrome formation using L-DOPA substrate by UV-Vis spectrophotometry.
Assay [4] deals with T1, Tyrosinase (Agaricus bisporus). Kind of assay: Inhibition of monophenolase activity of mushroom tyrosinase assessed as increase in lag period of monophenolase for oxidation of L-tyrosine substrate at 0.5 to 16 uM by UV-Vis spectrophotometry.
For assay [5] the target is unchanged. Kind of assay: Binding affinity to mushroom tyrosinase assessed as binding constant by fluorescence spectrophotometry.
Assay [6] shares this target. The source holds these as a separate data set.
Description: Inhibition of diphenolase activity of mushroom tyrosinase assessed as inhibition constant for enzyme-substrate-inhibitor complex by measuring reduction in dopachrome formation using L-DOPA substrate by UV-Vis spectrophotometry
Assay [7] has as its target T2, Tyrosinase. The source holds these as a separate data set.
Description: Inhibition of monophenolase activity of mushroom tyrosinase assessed as inhibition constant for free enzyme-inhibitor complex by measuring reduction in dopachrome formation using L-Tyrosine substrate by UV-Vis spectrophotometry
Assay [8] addresses T2, Tyrosinase. The source holds these as a separate data set.
The target of assay [9] is T2, Tyrosinase. This is another data set of the same source.
Description: Inhibition of diphenolase activity of mushroom tyrosinase assessed as inhibition constant for free enzyme-inhibitor complex by measuring reduction in dopachrome formation using L-DOPA substrate by UV-Vis spectrophotometry
Assay [10] has as its target T1, Tyrosinase (Agaricus bisporus). Kind of assay: Binding affinity to mushroom tyrosinase assessed as Stern-Volmer quenching constant by fluorescence spectrophotometry.
For assay [11] the target is unchanged. Kind of assay: Inhibition of monophenolase activity of mushroom tyrosinase assessed as reduction in steady state rate monophenolase activity for oxidation of L-tyrosine substrate at 0.5 to 16 uM by UV-Vis spectrophotometry.
The target of assay [12] is T2, Tyrosinase. Description: Inhibition of monophenolase activity of mushroom tyrosinase assessed as reduction in dopachrome formation using L-Tyrosine substrate by UV-Vis spectrophotometry.
For assay [13], the target named is T2, Tyrosinase. This is another data set of the same source.
Description: Competitive type inhibition of monophenolase activity of mushroom tyrosinase assessed as reduction in dopachrome formation using L-Tyrosine substrate by UV-Vis spectrophotometry based Dixon plot analysis
Assay [14] has as its target T2, Tyrosinase. This is another data set of the same source.
Description: Competitive type inhibition of diphenolase activity of mushroom tyrosinase assessed as reduction in dopachrome formation using L-DOPA substrate by UV-Vis spectrophotometry based Dixon plot analysis
In assay [15] the target is T1, Tyrosinase (Agaricus bisporus). Kind of assay: Inhibition of monophenolase activity of mushroom tyrosinase assessed as lag time period of monophenolase for oxidation of L-tyrosine substrate at 16 uM by UV-Vis spectrophotometry (reference value: […] secs).
The target is the same in assay [16]. Kind of assay: Binding affinity to mushroom tyrosinase by fluorescence spectrophotometry.
Assay [17] shares this target. Kind of assay: Inhibition of monophenolase activity of mushroom tyrosinase assessed as reduction in N-acetyl-L-dopaquinone formation at 25 uM using N-acetyl-L-tyrosine substrate incubated up to 60 mins by HPLC analysis.

As to `COc1cc(C2Oc3cc([C@H]4Oc5cc(O)cc(O)c5C(=O)[C@@H]4O)ccc3OC2CO)ccc1O` (mixture of isomers) [SILIBININ], the Kis is 3.7 µM in assay [1] and 27.6 µM in assay [6]. For the same molecule, the Ki at Tyrosinase [2] stood at 8.5 µM; on Tyrosinase [7] it was 0.7 µM; on Tyrosinase [8], 0.7 µM; at Tyrosinase [9] it was 8.4 µM. The 50% inhibitory concentration (IC50) at Tyrosinase [3] worked out at 12.1 µM; at Tyrosinase [12], 1.7 µM. For the same molecule, the inhibition result in assay [4] and in assay [11] was “Dose-dependent effect” in each case. Also, the KA in assay [5] was determined as 6.16 ×10⁶ L/mol. Moreover, in assay [10], the KSV was determined as 0.261 ×10⁴ L/mol.
For the molecule `COc1cc([C@@H]2Oc3c(O)cc(-c4oc5cc(O)cc(O)c5c(=O)c4O)cc3[C@H]2CO)ccc1O`, the results for the Kis in assay [1] and in assay [6] were 6.4 µM and 146 µM, respectively. Also, the inhibitory constant (Ki) at Tyrosinase [2] is 36.7 µM; at Tyrosinase [7], 4.6 µM; at Tyrosinase [8], 4.7 µM; at Tyrosinase [9] it was 38.3 µM. Moreover, the values for the IC50 at Tyrosinase [3] and on Tyrosinase [12] were 35.9 µM and 7.6 µM, respectively. In addition, the inhibition result in assay [4] and in [11] was “Dose-dependent effect” in each case. The KA in [5] was 2.25 ×10⁶ L/mol. The KSV in assay [10] worked out at 0.0634 ×10⁴ L/mol.
In the case of `COc1cc([C@@H]2Oc3c(O)cc([C@H]4Oc5cc(O)cc(O)c5C(=O)[C@@H]4O)cc3[C@H]2CO)ccc1O` [SILICRISTIN A], the Kis is 2.9 µM in assay [1] and 37.3 µM in assay [6]. The Ki on Tyrosinase [2] was found to be 15.4 µM; on Tyrosinase [7], 2.1 µM; on Tyrosinase [8], 2.1 µM; at Tyrosinase [9] it was 15.2 µM. Moreover, the 50% inhibitory concentration (IC50) on Tyrosinase [3] is 28.8 µM; at Tyrosinase [12] it was 3.2 µM. Besides, the inhibition entry in assay [4] and in assay [11] was “Dose-dependent effect” each time. Also, the KA in assay [5] amounted to 3.55 ×10⁶ L/mol. For the same molecule, in assay [10], the KSV turned out to be 0.192 ×10⁴ L/mol.
For `COc1cc([C@@H]2Oc3ccc([C@H]4Oc5cc(O)cc(O)c5C(=O)[C@@H]4O)cc3O[C@H]2CO)ccc1O` [ISOSILYBIN B], the results for the Kis in assay [1] and in assay [6] were 8 µM and 25.2 µM, respectively. The Ki amounted to 11.6 µM on Tyrosinase [2], 4.3 µM on Tyrosinase [7], 4.2 µM at Tyrosinase [8] and 12.7 µM at Tyrosinase [9]. Also, the IC50 came out at 19.8 µM on Tyrosinase [3] and 4.9 µM at Tyrosinase [12]. For the same molecule, the inhibition result in assay [4] and in assay [11] was “Dose-dependent effect” each time. Moreover, the KA in assay [5] came to 2.42 ×10⁶ L/mol. Moreover, the KSV in [10] was found to be 0.0882 ×10⁴ L/mol.
On to `O=C1c2c(O)cc(O)cc2O[C@H](c2ccc(O)c(O)c2)[C@H]1O`, for which, in assay [5], the KA stood at 0.918 ×10⁶ L/mol. Besides, in assay [10], the KSV is 0.0492 ×10⁴ L/mol.
On to `COc1cc([C@H]2Oc3c(O)cc([C@H]4Oc5cc(O)cc(O)c5C(=O)[C@@H]4O)cc3[C@@H]2CO)ccc1O` [SILICRISTIN B], for which the Kis in assay [1] was determined as 14 µM; in [6] it was 91.3 µM. For the same molecule, the Ki at Tyrosinase [2] worked out at 35.5 µM; on Tyrosinase [7], 2.8 µM; at Tyrosinase [8] it was 2.8 µM; at Tyrosinase [9], 34.7 µM. In addition, the IC50 is 44.9 µM at Tyrosinase [3] and 4.5 µM at Tyrosinase [12]. For the same molecule, the inhibition entry in [4] and in assay [11] was “Dose-dependent effect” throughout. The KA in [5] was 2.88 ×10⁶ L/mol. In addition, the KSV in [10] is 0.109 ×10⁴ L/mol.
With `COc1cc([C@H]2Oc3cc(O)cc(O)c3C(=O)[C@@H]2O)ccc1O`, the IC50 came out at 150 µM on Tyrosinase [3] and 51.2 µM on Tyrosinase [12]. The Ki was 20.5 µM on Tyrosinase [13] and 73.4 µM at Tyrosinase [14]. For the same molecule, the KA in assay [5] turned out to be 0.849 ×10⁶ L/mol. Besides, in [10], the KSV is 0.0222 ×10⁴ L/mol.
Consider `COc1cc([C@H]2Oc3ccc([C@H]4Oc5cc(O)cc(O)c5C(=O)[C@@H]4O)cc3O[C@@H]2CO)ccc1O` [ISOSILYBIN A], for which the Kis amounted to 3.2 µM in [1] and 29.5 µM in [6]. Further, in [15], the TIME came out at 0.0833 h. The inhibitory constant (Ki) was found to be 12.4 µM on Tyrosinase [2], 1.1 µM at Tyrosinase [7], 1.1 µM on Tyrosinase [8] and 12.3 µM at Tyrosinase [9]. Besides, the IC50 at Tyrosinase [3] amounted to 16.7 µM; at Tyrosinase [12] it was 2.1 µM. For the same molecule, the inhibition result in assay [4] and in assay [11] was “Dose-dependent effect” each time. Moreover, the KA in assay [5] amounted to 6.31 ×10⁶ L/mol. For the same molecule, the Activity result in [16] was “Dose-dependent effect”. Besides, the inhibition result in assay [17] is “Active”. The KSV in [10] amounted to 0.267 ×10⁴ L/mol.
In the case of `COc1cc([C@@H]2[C@H]3CO[C@@]4(O)C(=O)[C@@H]2C=C([C@H]2Oc5cc(O)cc(O)c5C(=O)[C@@H]2O)[C@@H]34)ccc1O` [SILIDIANIN], the values for the Kis in assay [1] and in [6] were 2.3 µM and 90.8 µM, respectively. Moreover, the Ki at Tyrosinase [2] turned out to be 14.9 µM; on Tyrosinase [7], 2.1 µM; at Tyrosinase [8], 1.7 µM; at Tyrosinase [9] it was 15 µM. Further, the IC50 at Tyrosinase [3] was determined as 16.5 µM; at Tyrosinase [12], 2.6 µM. Further, the inhibition entry in assay [4] and in [11] was “Dose-dependent effect” each time. Also, the KA in assay [5] was 5.81 ×10⁶ L/mol. Further, the KSV in assay [10] amounted to 0.193 ×10⁴ L/mol.
`O=C1c2c(O)cc(O)cc2O[C@H](c2ccc(O)cc2)[C@H]1O` [DIHYDROKAEMPFEROL]: the values for the IC50 on Tyrosinase [3] and on Tyrosinase [12] were over 200 µM and 73.6 µM, respectively. The Ki on Tyrosinase [13] came to 42 µM. For the same molecule, the KA in assay [5] was 0.094 ×10⁶ L/mol. For the same molecule, the Activity result in [16] is “Dose-dependent effect”. Besides, the KSV in [10] was found to be 0.0199 ×10⁴ L/mol.

What is called Ki is a dissociation constant, usually derived from enzyme kinetics or from competition with a known ligand. Read a high Ki as lower affinity. In general, IC50 refers to the concentration needed to halve the response being measured.
